Test system: mice
Assay: Neuropharmacological Assay (SmartCube)
Format: in vivo
Details: for minimal effective dose: Mus musculus, MED = dose having 50% or more total activity in SmartCube, read-out: POTENCY (minimal effective dose, MED); for AD: ADHD (SmartCube probability) / AG: analgesic (SmartCube probability) / AX: anxiolytic (SmartCube probability) / CE: cognitive enhancer (SmartCube probability) / DP: anti-depressant (SmartCube probability) / MS: mood stabilizer (SmartCube probability) / PS: anti-psychotic (SmartCube probability) / SD: sedative hypnotic (SmartCube probability) / UN: uncharacterized CNS activity (SmartCube probability): mice, i.p. 15 min before test, most efficacious dose(s) of 3 doses
Outline: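 Behavior of treated mice captured by digital video and matched algorithmically against reference drug classes, yielding a class probability at the most efficacious of 3 i.p. doses (15 min pretreatment, NMP/PEG/propylene glycol vehicle). Potency given as MED, the mpk dose reaching ≥50% total activity across usually 0.3–30 mpk.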

SMILES | minimal effective dose | AD: ADHD (SmartCube probability) | AG: analgesic (SmartCube probability) | AX: anxiolytic (SmartCube probability) | CE: cognitive enhancer (SmartCube probability) | DP: anti-depressant (SmartCube probability) | MS: mood stabilizer (SmartCube probability) | PS: anti-psychotic (SmartCube probability) | SD: sedative hypnotic (SmartCube probability) | UN: uncharacterized CNS activity (SmartCube probability)
CNC[C@@H]1OCC(F)(F)c2ccccc21 [Example 28, (R)-1-(4,4-difluoroisochroman-1-yl)-N-methylmethanamine] | < 3 mg/kg | + (LOQ≤ + <5%) | ++ (5%≤ ++ <25%) | ++ (5%≤ ++ <25%) | ++ (5%≤ ++ <25%) | ++ (5%≤ ++ <25%) | + (LOQ≤ + <5%) | +++ (25%≤ +++ <50%) | ++ (5%≤ ++ <25%) | +++ (25%≤ +++ <50%)
NC[C@@H]1OCCc2c(F)cccc21 [Example 29, (R)-(5-fluoroisochroman-1-yl)methanamine] | 3 to 10 mg/kg | + (LOQ≤ + <5%) | ++ (5%≤ ++ <25%) | ++ (5%≤ ++ <25%) | ++ (5%≤ ++ <25%) | ++++ (50%≤ ++++) | + (LOQ≤ + <5%) | + (LOQ≤ + <5%) | + (LOQ≤ + <5%) | ++ (5%≤ ++ <25%)
CNC[C@H]1OCCc2c(F)ccc(F)c21 [Example 30, (S)-1-(5,8-difluoroisochroman-1-yl)-N-methylmethanamine] | 3 to 10 mg/kg | + (LOQ≤ + <5%) | ++ (5%≤ ++ <25%) | ++ (5%≤ ++ <25%) | ++ (5%≤ ++ <25%) | ++ (5%≤ ++ <25%) | + (LOQ≤ + <5%) | ++ (5%≤ ++ <25%) | ++ (5%≤ ++ <25%) | +++ (25%≤ +++ <50%)
CNC[C@@H]1OCCc2c(F)ccc(F)c21 [Example 31, (R)-1-(5,8-difluoroisochroman-1-yl)-N-methylmethanamine] | < 3 mg/kg | + (LOQ≤ + <5%) | ++ (5%≤ ++ <25%) | ++ (5%≤ ++ <25%) | ++ (5%≤ ++ <25%) | ++++ (50%≤ ++++) | + (LOQ≤ + <5%) | + (LOQ≤ + <5%) | + (LOQ≤ + <5%) | + (LOQ≤ + <5%)
CNC[C@H]1OCCc2c(Cl)cccc21 [Example 32, (S)-1-(5-chloroisochroman-1-yl)-N-methylmethanamine] | 10 to 30 mg/kg | + (LOQ≤ + <5%) | + (LOQ≤ + <5%) | ++ (5%≤ ++ <25%) | ++ (5%≤ ++ <25%) | ++ (5%≤ ++ <25%) | + (LOQ≤ + <5%) | ++ (5%≤ ++ <25%) | + (LOQ≤ + <5%) | + (LOQ≤ + <5%)
CNC[C@@H]1OCCc2c(Cl)cccc21 [Example 33, (R)-1-(5-chloroisochroman-1-yl)-N-methylmethanamine] | < 3 mg/kg | + (LOQ≤ + <5%) | ++ (5%≤ ++ <25%) | ++ (5%≤ ++ <25%) | ++ (5%≤ ++ <25%) | ++++ (50%≤ ++++) | + (LOQ≤ + <5%) | + (LOQ≤ + <5%) | ++ (5%≤ ++ <25%) | +++ (25%≤ +++ <50%)
NC[C@@H]1OCCc2cc(F)ccc21 [Example 34, (R)-(6-fluoroisochroman-1-yl)methanamine] | < 3 mg/kg | + (LOQ≤ + <5%) | ++ (5%≤ ++ <25%) | ++ (5%≤ ++ <25%) | ++ (5%≤ ++ <25%) | ++ (5%≤ ++ <25%) | ++ (5%≤ ++ <25%) | +++ (25%≤ +++ <50%) | + (LOQ≤ + <5%) | +++ (25%≤ +++ <50%)
NC[C@@H]1OCCc2cccc(F)c21 [Example 35, (R)-(8-fluoroisochroman-1-yl)methanamine] | < 3 mg/kg | ++ (5%≤ ++ <25%) | ++ (5%≤ ++ <25%) | ++ (5%≤ ++ <25%) | ++ (5%≤ ++ <25%) | ++++ (50%≤ ++++) | + (LOQ≤ + <5%) | ++ (5%≤ ++ <25%) | ++ (5%≤ ++ <25%) | ++++ (50%≤ ++++)
CNC[C@H]1OCCc2cccc(Cl)c21 [Example 36, (S)-1-(8-chloroisochroman-1-yl)-N-methylmethanamine] | 3 to 10 mg/kg | + (LOQ≤ + <5%) | + (LOQ≤ + <5%) | ++ (5%≤ ++ <25%) | ++ (5%≤ ++ <25%) | + (LOQ≤ + <5%) | + (LOQ≤ + <5%) | ++ (5%≤ ++ <25%) | + (LOQ≤ + <5%) | +++ (25%≤ +++ <50%)
CNC[C@@H]1OCCc2cccc(Cl)c21 [Example 37, (R)-1-(8-chloroisochroman-1-yl)-N-methylmethanamine] | < 3 mg/kg | + (LOQ≤ + <5%) | ++ (5%≤ ++ <25%) | + (LOQ≤ + <5%) | ++ (5%≤ ++ <25%) | ++ (5%≤ ++ <25%) | + (LOQ≤ + <5%) | ++ (5%≤ ++ <25%) | + (LOQ≤ + <5%) | ++++ (50%≤ ++++)
CNC[C@H]1OCCc2c(C)cccc21 [Example 38, (S)-N-methyl-1-(5-methylisochroman-1-yl)methanamine] | < 3 mg/kg | + (LOQ≤ + <5%) | ++ (5%≤ ++ <25%) | ++ (5%≤ ++ <25%) | + (LOQ≤ + <5%) | ++ (5%≤ ++ <25%) | + (LOQ≤ + <5%) | ++ (5%≤ ++ <25%) | ++ (5%≤ ++ <25%) | +++ (25%≤ +++ <50%)
CNC[C@@H]1OCCc2c(C)cccc21 [Example 39, (R)-N-methyl-1-(5-methylisochroman-1-yl)methanamine] | < 3 mg/kg | + (LOQ≤ + <5%) | ++ (5%≤ ++ <25%) | ++ (5%≤ ++ <25%) | ++ (5%≤ ++ <25%) | ++++ (50%≤ ++++) | + (LOQ≤ + <5%) | ++ (5%≤ ++ <25%) | + (LOQ≤ + <5%) | +++ (25%≤ +++ <50%)
